Assay results reported in publication PMC8424629, “Chemical “Butterfly Effect” Explaining the Coordination Chemistry and Antimicrobial Properties of Clavanin Complexes” (Inorganic Chemistry, 2021).
Values after ≈ are worked out from the molar mass of the structure shown. Like-named read-outs stand apart in the source and are kept apart here.

Columns and labels:
[1] = test system: Escherichia coli ATCC 25922; assay: microbe, parasite or virus in culture; conditions: ATCC25922, 24 h
[2] = format: binding
Experimental: (§1) All peptides ([…]-COOH, […]-COOH, […]
(§2) were purchased from KareBay Biochem (USA) (certified purity: 98 %) and were used as received.
(§3) The carbonate-free stock solutions of 0.1 M NaOH were purchased from Sigma-Aldrich and then potentiometrically standardized with the primary standard potassium hydrogen phthalate (99.9 % purity). […]
(§4) Stability constants for proton, Zn(II) and Cu(II) complexes were calculated from pH -metric titration curves carried out over the pH range 2-11 at T = 298 K in water solution of 4 mM HClO 4 and ionic strength 40 mM (SDS), using a total volume of 3 ml. The potentiometric titrations were performed using a Metrohm Titrando 905 titrator and a Mettler Toledo InLab Micro comb ined pH electrode. The thermostabilized glass -cell was equipped with a magnetic stirring system, a microburette delivery tube and an inlet –outlet tube for argon.
(§5) Solutions were titrated with 0.1 M carbonate-free NaOH. The electrodes were calibrated daily f or hydrogen ion concentration by titrating HClO 4 with NaOH under the same experimental conditions as above. The purities and the exact concentrations of the ligand solutions were determined by the Gran method. 1 The ligand concentration was 0.5 mM. The Zn(II) and Cu(II) to ligand ratio was 1 : 1.
(§6) The standard potential and the slope of the electrode couple were computed by means of Glee 2 program. The HYPERQUAD 20063 program was used for the stability constant calculations. The standard deviations were computed by HYPERQUAD 2006 and refer to random errors only. The constants for the hydrolytic Zn(II ) species

[3] = format: physicochemical
Experimental: as §1, §2, §3, §4, §5, §6

[4] = test system: Escherichia coli ATCC 25922; conditions: ATCC 25922, 24 h
[5] = test system: MRSA Staphylococcus aureus ATCC 43300; conditions: ATCC 43300, 24 h
[6] = test system: Enterococcus faecalis ATCC 29212; conditions: ATCC 29212, 24 h
[7] = test system: Candida albicans ATCC 10231; conditions: ATCC 10231, 24 h
[8] = test system: MRSA Staphylococcus aureus ATCC 43300; assay: microbe, parasite or virus in culture; conditions: 24 h
[9] = test system: Enterococcus faecalis ATCC 29212; assay: microbe, parasite or virus in culture; conditions: ATCC29212, 24 h
[10] = test system: Pseudomonas aeruginosa ATCC 27853; assay: MIC, broth microdilution, reference strain; format: cell-based; conditions: ATCC27853, microdilution 0.5-256 µg/mL, TSB, 24 h, 37 °C, OD 580 nm
[11] = test system: Candida albicans ATCC 10231; assay: microbe, parasite or virus in culture; conditions: ATCC10231, 24 h
[12] = potentiometry, 298 K, I = 40 mM SDS, Cu(II):L 1:1, 0.5 mM, SD in parentheses
[13] = potentiometry, 298 K, I = 40 mM SDS, Zn(II):L 1:1, 0.5 mM, SD in parentheses
[14] = potentiometry pH 2-11, 298 K, 4 mM HClO4, I = 40 mM SDS, ligand 0.5 mM, SD in parentheses

CNC(C)C1CCC(N)C(OC2C(N)CC(N)C(OC3OCC(C)(O)C(NC)C3O)C2O)O1 (stereo not shown) [gentamicin] showed an MIC [1] of 2 µg/mL (≈ 4.19 µM).
With “H-AFKLLGRIIHHVGNFVYGFSHVF-OH [Clavanin D]” the “pKa, line CuH2L” value [2] was 6.95, the “pKa, line CuH3L” value [2] was 6.00 and the “pKa, line CuH4L” value [2] was 5.23. For the same molecule, the “pKa, line CuH-1L” value [2] was 9.92, the “pKa, line CuH-2L” value [2] was 10.54 and the “pKa, line CuH-3L” value [2] was 11.91. The “pKa, line CuHL” value [2] was 7.94, the “pKa, line CuL” value [2] was 8.79 and the “pKa, line ZnH2L” value [2] was 8.22. The “log β CuH2L” value [2, 12] was 30.38 (2), the “log β CuH3L” value [2, 12] was 37.33 (2) and the “log β CuH4L” value [2, 12] was 43.33 (1). The “log β CuH5L” value [2, 12] was 48.56 (3), the “log β CuH-1L” value [2, 12] was 3.73 (3) and the “log β CuH-2L” value [2, 12] was -6.81 (4). The “log β CuH-3L” value [2, 12] was -18.72 (1), the “log β CuHL” value [2, 12] was 22.44 (3) and the “log β CuL” value [2, 12] was 13.65 (3). For the same molecule, the “log β ZnH2L” value [2, 13] was 25.94 (2), the “log β ZnH3L” value [2, 13] was 34.16 (3) and the “log β ZnH5L” value [2, 13] was 47.63 (12). The “log β ZnL” value [2, 13] was 6.73 (14), the “pKa, species H2L” value [3] was 10.08 and the “pKa, species H3L” value [3] was 8.68. The “pKa, species H4L” value [3] was 7.81, the “pKa, species H5L” value [3] was 7.24 and the “pKa, species H6L” value [3] was 5.26. For the same molecule, the “pKa, species HL” value [3] was 11.13, the “log β H2L” value [3, 14] was 21.21 (4) and the “log β H3L” value [3, 14] was 29.89 (5). The “log β H4L” value [3, 14] was 37.70 (5), the “log β H5L” value [3, 14] was 44.94 (5) and the “log β H6L” value [3, 14] was 50.20 (5). For the same molecule, the “log β HL” value [3, 14] was 11.13 (6), the MIC [4] was 64 µg/mL and the MIC [5] was 128 µg/mL. It also gave an MIC [6] of 128 µg/mL and an MIC [7] of 16 µg/mL.
For C[C@H]1COc2c(N3CCN(C)CC3)c(F)cc3c(=O)c(C(=O)O)cn1c23 [levofloxacin], the MIC [8] was 1 µg/mL (≈ 2.77 µM), the MIC [9] was 4 µg/mL (≈ 11.1 µM) and the MIC [10] was 1 µg/mL (≈ 2.77 µM).
Work on C[C@@H]1[C@H](O)[C@@H](C)/C=C/C=C/C=C/C=C/C=C/C=C/C=C/[C@H](O[C@@H]2O[C@H](C)[C@@H](O)[C@H](N)[C@@H]2O)C[C@@H]2O[C@](O)(C[C@@H](O)C[C@@H](O)[C@H](O)CC[C@@H](O)C[C@@H](O)CC(=O)O[C@H]1C)C[C@H](O)[C@H]2C(=O)O [amphotericin B] yielded an MIC [11] of 1 µg/mL (≈ 1.08 µM).
